Measured values published in ChEMBL document CHEMBL1201862, “PubChem BioAssay data set” (2004).
Active and inactive are the calls of the source.

Columns and labels:
[1] = biological target: T1, Ubiquitin-conjugating enzyme E2 N (Homo sapiens, UniProt P61088); type: functional;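 further: Dose-response confirmation in a TR-FRET assay detecting UBC13-driven polyubiquitin chain formation, inhibition measured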
T1 sequence (P61088 whole entry): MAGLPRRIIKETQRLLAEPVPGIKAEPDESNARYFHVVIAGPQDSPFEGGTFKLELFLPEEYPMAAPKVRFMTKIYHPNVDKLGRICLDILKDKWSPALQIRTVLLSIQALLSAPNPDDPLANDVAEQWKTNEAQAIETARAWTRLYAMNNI

[2] = C. albicans growth with fluconazole, confirmation, fluorescence, retest (AID 2467); type: functional, cell-based
[3] = inhibitors of firefly luciferase expression or activity, dose response, H4 neuroglioma cells, luminescence (AID 1990); type: functional, cell-based
[4] = inhibitors of SNCA 5'UTR-driven reporter translation, confirmation, H4 neuroglioma cells, luminescence (AID 1988); type: functional, cell-based
Vero [5] = assay: cells; type: functional, cell-based; conditions: Chlorocebus sabaeus
[6] = NIH-3T3 fibroblast cytotoxicity, dose response, cytotoxicity control, cell-based, fluorescence, Alamar Blue, secondary assay (AID 2327); type: functional;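 further: NIH-3T3 mouse fibroblasts cultured with fluconazole at 8 µg/mL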
[7] = biological target: T2, Serine/threonine-protein phosphatase (Candida dubliniensis (strain CD36 / CBS 7987 / NCPF 3949 / NRRLY-17841) (Yeast), UniProt B9W6M3); assay: calcineurin pathway inhibitors in yeast reporter, dose response, S. cerevisiae, CDRE-lacZ, luminescence, secondary (AID 2388); type: functional, cell-based;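 further: yeast reporter cells carrying a calcineurin-responsive lacZ construct stimulated with calcium chloride; luminescent beta-galactosidase reporter signal in whole cells rather than isolated phosphatase activity; potency for inhibition where a drop in reporter signal means calcineurin blockade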
T2 sequence (B9W6M3 whole entry): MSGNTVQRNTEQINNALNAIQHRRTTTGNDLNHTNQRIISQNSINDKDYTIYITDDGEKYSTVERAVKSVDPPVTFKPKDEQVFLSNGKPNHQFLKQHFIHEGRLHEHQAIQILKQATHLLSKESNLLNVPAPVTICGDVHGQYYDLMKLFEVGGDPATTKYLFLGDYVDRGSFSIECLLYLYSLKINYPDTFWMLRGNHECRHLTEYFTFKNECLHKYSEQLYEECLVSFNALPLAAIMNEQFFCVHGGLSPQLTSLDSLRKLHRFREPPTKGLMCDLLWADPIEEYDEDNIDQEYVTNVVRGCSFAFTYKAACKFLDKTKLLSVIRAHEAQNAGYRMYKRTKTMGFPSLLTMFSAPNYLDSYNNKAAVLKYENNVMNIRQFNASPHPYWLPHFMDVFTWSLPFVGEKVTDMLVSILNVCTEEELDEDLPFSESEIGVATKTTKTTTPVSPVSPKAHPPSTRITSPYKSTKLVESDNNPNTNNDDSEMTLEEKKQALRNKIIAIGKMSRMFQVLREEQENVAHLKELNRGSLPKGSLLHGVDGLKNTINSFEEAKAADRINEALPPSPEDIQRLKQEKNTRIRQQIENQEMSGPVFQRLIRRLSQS

[8] = biological target: ATP-dependent molecular chaperone HSP82 (Candida albicans (strain WO-1) (Yeast), UniProt C4YTQ8); assay: loss of DOC-induced GRE-beta-galactosidase reporter signal, dose response, Hsp90 inhibitor project, S. cerevisiae, luminescence (AID 2400); type: functional, cell-based;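 further: beta-galactosidase luminescence from glucocorticoid response element reporter as proxy for Hsp90 function; inhibitor potency where signal loss means Hsp90 inhibition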
[9] = Luminescence Cell-Based Dose Response HTS to Identify Inhibitors of 5'UTR Stem-Loop Driven Prion Protein mRNA Translation in H4 Neuroglioblastoma Cells. [Related pubchem assays: 1827 (Project Summary), 1813 (Primary HTS)]; type: functional
Vero [10] = assay: cells; type: functional; conditions: Chlorocebus sabaeus
[11] = biological target: DNA dC->dU-editing enzyme APOBEC-3A (Homo sapiens, UniProt P31941); assay: APOBEC3A DNA deaminase inhibitors, dose response, biochemical (AID 504722); type: functional
[12] = inhibitors of intracellular T. cruzi replication, confirmation, NIH3T3 host cells, beta-gal luminescence (AID 2044); type: functional, cell-based;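 further: intracellular parasites grown in NIH/3T3 mouse fibroblasts as host cells; luminescent beta-galactosidase reporter signal from transgenic T. cruzi replicating inside host cells; inhibitors lower the luminescence signal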
Ion channel NompC = Ion channel NompC (Danio rerio, UniProt Q7T1G6); assay: Dose response cell-based high-throughput screening assay for agonists of the transient receptor potential channel N1 (TRPN1). [Related pubchem assays (depositor defined):AID1424, AID1448]; type: functional
[13] = cytotoxicity toward NIH3T3 fibroblasts, dose response, counter-screen, cell-based, ATP luminescence, mouse fibroblasts (AID 2010); type: functional;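 further: cells exposed to compound for about 90 hours before reading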
Large T antigen = Large T antigen (Simian virus 40, UniProt P03070); type: functional, Betapolyomavirus macacae;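 further: Confirmatory-stage PubChem screen for compounds that inhibit SV40 T antigen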
[14] = biological target: DNA dC->dU-editing enzyme APOBEC-3G (Homo sapiens, UniProt Q9HC16); assay: Dose Response confirmation of small molecule APOBEC3G DNA Deaminase Inhibitors via a fluorescence-based single-stranded DNA deaminase assay. [Related pubchem assays (depositor defined):AID493012, AID493028]; type: functional
Mucolipin-3 = biological target: T3, Mucolipin-3 (Homo sapiens, UniProt Q8TDD5); assay: Fluorescence counterscreen assay for […] agonists: dose response cell-based high-throughput screening assay to identify agonists of the transient receptor potential channel ML3 (TRPML3). [Related pubchem assays: 1424, 1448 ]; type: functional
T3 sequence (Q8TDD5 whole entry): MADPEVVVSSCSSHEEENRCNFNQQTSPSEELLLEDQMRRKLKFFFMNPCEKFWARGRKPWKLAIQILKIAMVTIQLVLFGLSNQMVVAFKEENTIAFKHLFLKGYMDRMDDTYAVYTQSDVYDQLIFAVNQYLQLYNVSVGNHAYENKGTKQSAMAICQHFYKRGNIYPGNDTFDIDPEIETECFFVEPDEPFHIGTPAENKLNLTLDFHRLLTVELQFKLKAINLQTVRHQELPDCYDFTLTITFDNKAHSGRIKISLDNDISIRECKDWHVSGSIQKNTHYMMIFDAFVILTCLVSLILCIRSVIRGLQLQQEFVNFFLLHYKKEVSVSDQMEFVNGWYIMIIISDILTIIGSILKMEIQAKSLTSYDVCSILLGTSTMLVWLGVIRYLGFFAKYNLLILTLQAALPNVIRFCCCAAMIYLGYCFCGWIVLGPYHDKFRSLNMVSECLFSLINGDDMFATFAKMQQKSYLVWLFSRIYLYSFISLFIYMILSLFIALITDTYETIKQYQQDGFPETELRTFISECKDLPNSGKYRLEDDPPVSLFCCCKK

[15] = biological target: Glucose-6-phosphate 1-dehydrogenase (Homo sapiens, UniProt P11413); assay: human G6PD enzyme inhibitors, dose response, selectivity assay for P. falciparum G6PD inhibitor project, biochemical, fluorescence (AID 504792); type: functional
[16] = biological target: T4, Voltage-gated N-type calcium channel alpha-1B subunit/Amyloid beta A4 precursor protein-binding family A member 1 (Homo sapiens, UniProt Q00975+Q02410); type: protein assay
[17] = biological target: T4, Voltage-gated N-type calcium channel alpha-1B subunit/Amyloid beta A4 precursor protein-binding family A member 1; type: protein assay; remark: listed apart in the source
[18] = biological target: Dual specificity tyrosine-phosphorylation-regulated kinase 1A (Rattus norvegicus, UniProt Q63470); type: biochemical, Homo sapiens
H4 = assay: Inhibitors of Prion Protein 5' UTR mRNA Measured in Cell-Based System Using Plate Reader - 2078-01_Inhibitor_Dose_DryPowder_Activity. [Related pubchem assays (depositor defined):AID488894]; type: functional; conditions: Homo sapiens
[19] = cytotoxicity in HEK-293T cells, dose response, cytotoxicity control for TCR NF-kB inhibitor project, luminescence, T-cell screen hits (AID 489026); type: functional, cell-based;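 further: cells exposed to compound about 14 hours before the viability readout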

T4 sequence (Q00975 whole entry): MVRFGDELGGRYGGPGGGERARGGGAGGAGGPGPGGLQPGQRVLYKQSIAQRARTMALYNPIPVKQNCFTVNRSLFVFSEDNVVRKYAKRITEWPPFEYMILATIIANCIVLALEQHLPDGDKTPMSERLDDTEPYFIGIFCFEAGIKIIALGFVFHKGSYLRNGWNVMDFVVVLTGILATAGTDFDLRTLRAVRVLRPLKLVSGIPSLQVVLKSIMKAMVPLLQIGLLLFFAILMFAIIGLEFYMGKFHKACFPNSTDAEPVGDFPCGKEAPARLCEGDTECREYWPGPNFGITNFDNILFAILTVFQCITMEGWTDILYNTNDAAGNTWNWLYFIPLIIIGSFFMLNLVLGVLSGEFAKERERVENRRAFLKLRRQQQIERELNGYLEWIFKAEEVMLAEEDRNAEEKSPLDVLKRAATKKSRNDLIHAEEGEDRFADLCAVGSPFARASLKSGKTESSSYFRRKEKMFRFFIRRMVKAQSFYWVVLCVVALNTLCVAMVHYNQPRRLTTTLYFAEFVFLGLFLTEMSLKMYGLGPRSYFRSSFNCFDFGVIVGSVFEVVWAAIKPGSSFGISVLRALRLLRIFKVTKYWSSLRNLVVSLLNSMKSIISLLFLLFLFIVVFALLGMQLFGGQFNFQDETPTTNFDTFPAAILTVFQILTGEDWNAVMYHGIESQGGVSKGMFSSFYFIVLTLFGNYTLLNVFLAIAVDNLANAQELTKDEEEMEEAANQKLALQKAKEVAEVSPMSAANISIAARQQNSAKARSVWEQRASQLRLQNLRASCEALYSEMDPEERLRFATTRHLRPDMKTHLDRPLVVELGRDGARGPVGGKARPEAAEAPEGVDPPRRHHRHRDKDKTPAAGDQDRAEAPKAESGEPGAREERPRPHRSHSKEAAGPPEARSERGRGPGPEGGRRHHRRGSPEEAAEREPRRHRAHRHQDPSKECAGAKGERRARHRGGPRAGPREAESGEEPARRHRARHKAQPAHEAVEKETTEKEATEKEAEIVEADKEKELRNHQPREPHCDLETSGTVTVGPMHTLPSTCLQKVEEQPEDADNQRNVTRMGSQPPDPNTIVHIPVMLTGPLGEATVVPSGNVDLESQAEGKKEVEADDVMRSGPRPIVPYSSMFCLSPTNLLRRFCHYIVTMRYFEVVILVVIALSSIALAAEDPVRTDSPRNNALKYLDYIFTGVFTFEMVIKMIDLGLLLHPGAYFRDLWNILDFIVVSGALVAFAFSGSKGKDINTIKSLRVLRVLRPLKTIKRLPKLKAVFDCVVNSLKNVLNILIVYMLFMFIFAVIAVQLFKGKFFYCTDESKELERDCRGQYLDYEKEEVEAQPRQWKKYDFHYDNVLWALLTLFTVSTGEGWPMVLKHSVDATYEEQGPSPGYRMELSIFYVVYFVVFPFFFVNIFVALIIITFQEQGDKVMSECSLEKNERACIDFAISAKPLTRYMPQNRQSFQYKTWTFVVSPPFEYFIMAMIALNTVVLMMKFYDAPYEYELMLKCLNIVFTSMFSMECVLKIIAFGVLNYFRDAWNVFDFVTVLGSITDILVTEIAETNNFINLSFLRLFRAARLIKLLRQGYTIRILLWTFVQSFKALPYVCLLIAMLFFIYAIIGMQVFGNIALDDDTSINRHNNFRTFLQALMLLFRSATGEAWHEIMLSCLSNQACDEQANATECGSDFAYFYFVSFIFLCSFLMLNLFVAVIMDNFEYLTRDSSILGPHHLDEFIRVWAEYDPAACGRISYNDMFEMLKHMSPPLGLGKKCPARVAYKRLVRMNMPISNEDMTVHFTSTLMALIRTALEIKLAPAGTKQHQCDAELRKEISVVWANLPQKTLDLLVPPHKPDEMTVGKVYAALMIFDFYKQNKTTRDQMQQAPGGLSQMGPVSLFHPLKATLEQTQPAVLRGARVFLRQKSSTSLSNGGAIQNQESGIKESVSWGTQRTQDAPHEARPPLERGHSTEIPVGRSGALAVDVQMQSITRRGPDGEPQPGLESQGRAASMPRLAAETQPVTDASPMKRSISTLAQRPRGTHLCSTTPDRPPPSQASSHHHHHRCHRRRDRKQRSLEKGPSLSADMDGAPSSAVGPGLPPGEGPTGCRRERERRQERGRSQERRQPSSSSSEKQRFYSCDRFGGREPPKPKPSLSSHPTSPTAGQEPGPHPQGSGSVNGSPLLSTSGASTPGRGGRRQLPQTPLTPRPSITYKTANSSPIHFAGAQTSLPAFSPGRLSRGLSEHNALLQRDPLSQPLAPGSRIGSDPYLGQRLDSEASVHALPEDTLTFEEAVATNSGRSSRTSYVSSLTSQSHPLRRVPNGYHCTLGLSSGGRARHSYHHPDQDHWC
T4 sequence (Q02410 whole entry): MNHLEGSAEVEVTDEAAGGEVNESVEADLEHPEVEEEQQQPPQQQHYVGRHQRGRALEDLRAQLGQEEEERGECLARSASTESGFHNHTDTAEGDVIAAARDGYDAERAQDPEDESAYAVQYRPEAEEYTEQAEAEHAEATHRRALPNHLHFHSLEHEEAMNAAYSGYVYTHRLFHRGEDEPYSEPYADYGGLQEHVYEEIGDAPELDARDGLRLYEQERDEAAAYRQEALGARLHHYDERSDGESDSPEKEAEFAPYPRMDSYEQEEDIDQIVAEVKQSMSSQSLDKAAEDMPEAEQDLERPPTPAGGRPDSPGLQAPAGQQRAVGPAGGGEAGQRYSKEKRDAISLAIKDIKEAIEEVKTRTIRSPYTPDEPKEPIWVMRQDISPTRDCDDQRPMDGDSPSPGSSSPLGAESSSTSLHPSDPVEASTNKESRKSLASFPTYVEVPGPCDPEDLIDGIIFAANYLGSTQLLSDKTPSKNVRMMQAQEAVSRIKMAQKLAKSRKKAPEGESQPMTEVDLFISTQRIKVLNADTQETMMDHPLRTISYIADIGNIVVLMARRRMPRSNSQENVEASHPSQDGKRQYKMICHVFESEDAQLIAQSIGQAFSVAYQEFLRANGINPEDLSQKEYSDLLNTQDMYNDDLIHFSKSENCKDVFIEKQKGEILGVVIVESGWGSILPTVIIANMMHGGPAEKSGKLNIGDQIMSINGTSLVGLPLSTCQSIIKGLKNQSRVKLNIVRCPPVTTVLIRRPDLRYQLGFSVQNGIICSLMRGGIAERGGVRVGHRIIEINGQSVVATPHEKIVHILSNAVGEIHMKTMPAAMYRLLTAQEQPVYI
Sequence of ATP-dependent molecular chaperone HSP82 (C4YTQ8 whole entry): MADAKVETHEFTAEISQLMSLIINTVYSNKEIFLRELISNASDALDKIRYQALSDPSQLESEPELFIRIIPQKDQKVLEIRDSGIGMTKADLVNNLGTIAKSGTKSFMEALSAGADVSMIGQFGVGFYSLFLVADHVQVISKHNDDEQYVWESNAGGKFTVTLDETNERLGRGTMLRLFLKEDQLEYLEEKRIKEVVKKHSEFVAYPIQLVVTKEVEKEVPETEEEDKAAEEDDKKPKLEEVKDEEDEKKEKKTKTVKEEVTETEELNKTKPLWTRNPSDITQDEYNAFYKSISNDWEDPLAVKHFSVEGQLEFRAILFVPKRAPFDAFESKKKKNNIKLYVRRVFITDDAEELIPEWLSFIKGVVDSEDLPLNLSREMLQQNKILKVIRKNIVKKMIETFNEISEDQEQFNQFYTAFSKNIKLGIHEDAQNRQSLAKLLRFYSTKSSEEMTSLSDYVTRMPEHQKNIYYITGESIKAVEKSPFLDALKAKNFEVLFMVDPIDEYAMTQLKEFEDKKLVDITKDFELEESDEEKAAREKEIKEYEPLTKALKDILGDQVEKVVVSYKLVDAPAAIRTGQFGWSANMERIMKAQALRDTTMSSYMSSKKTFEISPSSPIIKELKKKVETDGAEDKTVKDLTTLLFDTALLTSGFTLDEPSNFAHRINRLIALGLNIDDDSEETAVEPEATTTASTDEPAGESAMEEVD
Sequence of DNA dC->dU-editing enzyme APOBEC-3A (P31941 whole entry): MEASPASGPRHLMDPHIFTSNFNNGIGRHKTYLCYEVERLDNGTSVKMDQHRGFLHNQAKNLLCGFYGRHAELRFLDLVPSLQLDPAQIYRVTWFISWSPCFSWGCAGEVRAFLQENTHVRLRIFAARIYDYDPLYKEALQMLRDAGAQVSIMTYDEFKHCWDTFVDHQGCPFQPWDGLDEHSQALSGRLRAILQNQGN
Sequence of Large T antigen (P03070 whole entry): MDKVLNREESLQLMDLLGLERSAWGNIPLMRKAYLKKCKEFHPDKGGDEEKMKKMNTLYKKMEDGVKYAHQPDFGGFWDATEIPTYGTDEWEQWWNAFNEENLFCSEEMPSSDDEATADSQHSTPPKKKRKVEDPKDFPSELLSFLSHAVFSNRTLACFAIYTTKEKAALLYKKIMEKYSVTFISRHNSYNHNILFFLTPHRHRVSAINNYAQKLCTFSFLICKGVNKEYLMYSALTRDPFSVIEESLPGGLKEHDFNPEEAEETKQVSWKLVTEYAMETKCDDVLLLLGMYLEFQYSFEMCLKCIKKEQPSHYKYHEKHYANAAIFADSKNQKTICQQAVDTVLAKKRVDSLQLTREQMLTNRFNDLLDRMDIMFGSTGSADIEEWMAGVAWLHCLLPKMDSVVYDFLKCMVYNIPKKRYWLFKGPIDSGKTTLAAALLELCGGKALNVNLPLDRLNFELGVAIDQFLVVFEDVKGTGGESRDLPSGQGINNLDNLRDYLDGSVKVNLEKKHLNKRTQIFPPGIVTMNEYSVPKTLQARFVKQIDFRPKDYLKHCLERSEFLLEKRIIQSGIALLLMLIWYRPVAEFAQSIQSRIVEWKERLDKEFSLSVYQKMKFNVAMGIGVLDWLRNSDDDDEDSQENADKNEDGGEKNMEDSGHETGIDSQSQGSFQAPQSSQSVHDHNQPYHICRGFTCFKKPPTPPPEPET

Q: What does the source list for CCCOc1ccc(C(=O)NNC(=S)NC(C)=O)cc1?
A: IC50 [1]: > 20 µM (inactive); EC50 [2]: 0.372 µM (active); EC50 [3]: 14.2 µM (active); EC50 [4]: 9.77 µM (active); IC50 (Vero [5]): 23.6 µM (active); EC50 [6]: > 160 µM (inactive); EC50 [7]: > 180 µM (inactive); EC50 [8]: > 160 µM (inactive); EC50 [9]: 14.2 µM (active); CC50 (Vero [10]): > 25 µM (active)

Q: Which EC50 [2] does the source give for O=C(Nc1nnc(SCc2ccc(Cl)cc2)s1)c1cnccn1 here?
A: Its EC50 is 0.57 µM (active).

Q: And the EC50 [6]?
A: The EC50 was > 160 µM (inactive).

Q: What about the EC50 [7] of the same compound?
A: The EC50 was > 180 µM (inactive).

Q: What about the EC50 [8] of the same compound?
A: The EC50 was 24.4 µM (active).

Q: Which IC50 [11] does the source give for Cc1cc(C)c2c(=O)n(CC(=O)Nc3cccc(Cl)c3C)sc2n1 here?
A: The IC50 was > 100 µM (inactive).

Q: What about the EC50 [12] of the same compound?
A: Its EC50 is 1.65 µM (active).

Q: And the EC50 (Ion channel NompC)?
A: The EC50 was > 29.9 µM (inactive).

Q: What about the EC50 [13] of the same compound?
A: The EC50 was 7.73 µM (active).

Q: What about the IC50 (Large T antigen) of the same compound?
A: The IC50 was 9.03 µM (active).

Q: What about the IC50 [14] of the same compound?
A: The IC50 was 6.83 µM (active).

Q: And the EC50 (Mucolipin-3)?
A: The EC50 was > 29.9 µM (not active).

Q: What about the IC50 [15] of the same compound?
A: The IC50 was 46.5 µM (inactive).

Q: What about the IC50 [16] of the same compound?
A: Its IC50 is 17.8 µM (active).

Q: What about the IC50 [17] of the same compound?
A: The IC50 was > 50 µM (inactive).

Q: With c1cncc(-c2csc(-c3cccnc3)n2)c1 as the compound, how does the AC50 [18] read?
A: Its AC50 is 0.676 µM (active).

Q: With C=CCn1c(SCc2c(C)noc2C)nc2ccccc2c1=O as the compound, how does the AC50 (H4) read?
A: The AC50 was 0.574 µM (active).

Q: And the IC50 [19]?
A: Its IC50 is > 80 µM (inactive).
